Assay results as given in ChEMBL document CHEMBL1149740, “New phenolic glucosides from the leaves of Eurya tigang” (J Nat Prod, 1992).
Values after ≈ are worked out from the molar mass of the structure shown.

How the values were obtained:
[1] = Antitumor activity against mouse keratinocytes; type: cell-based; conditions: Keratinocyte
[2] = test system: T-24; test: Antitumor activity against human T24 cells; type: functional, cell-based

| SMILES | IC50 [1] | IC50 [2] |
| --- | --- | --- |
| O=C1C=CC(O)(CCO[C@@H]2O[C@H](COC(=O)/C=C/c3ccccc3)[C@@H](O)[C@H](O)[C@H]2O)C=C1 [EUTIGOSIDE C] | 12.6 µg/mL (≈ 28.2 µM) | 29.3 µg/mL (≈ 65.6 µM) |
| O=C(/C=C/c1ccc(O)cc1)OC[C@H]1O[C@@H](OCCc2ccc(O)cc2)[C@H](O)[C@@H](O)[C@@H]1O [EUTIGOSIDE A] | 9.2 µg/mL (≈ 20.6 µM) | 28.7 µg/mL (≈ 64.3 µM) |
| O=C1C=CC(O)(CCO[C@@H]2O[C@H](COC(=O)/C=C/c3ccc(O)cc3)[C@@H](O)[C@H](O)[C@H]2O)C=C1 [EUTIGOSIDE B] | 9.4 µg/mL (≈ 20.3 µM) | 31.9 µg/mL (≈ 69 µM) |
